The values that follow come from patent EP0322747B1, “A brain neuron protecting agent containing a dihydropyridine compound” (priority 1987, dated 1989).

Holding throughout (experiment): Prophylactic effect on ischemic breakdown of cytoskeletal proteins, 5-minute brain ischemia-reperfusion model
What all share (type): in vivo, gerbil

In one experiment the test system is clathrin. The following applies: for Total score, Clathrin: number of brain sites with significant effect. The procedure: (§1) A gerbil was immobilized in supine position and median section was performed in the cervical region under local anesthesia. Then, the bilateral common carotid arteries were stripped off carefully not to injure the vagus and sympathetic nerves running in parallel, . Then, each common carotid artery was obstructed with a small clip and after an interval of 5, 10 or 15 minutes, the clips were removed. The animal was decapitated immediately, 4 days or 1 week after the removal of the clips, and the brain was isolated. Untreated animals served as controls and animals undergoing sham operation (involving the stripping procedure only) were also investigated. The isolated brain was sectioned under ice-cooling into the frontal cortex (upper 2/3, approximately corresponding to the 1st to the 5th layer, ∼80 mg), striatum (∼20 mg) and hippocampus (∼50 mg) and each portion was homogenized in 4 times volume of (v/w) of 0.01 M phosphate buffer (pH 7.2). Each homogenate was centrifuged at 100,000 G for 30 minutes to obtain a supernatant. Equal parts of these supernatants were subjected to SDS-polyacrylamide gel (5%) electrophoresis and the proteins, namely MAP-2 (MW: 250-260K) calspectin (MW: 230-240K) and clathrin (MW: 180K), were quantified by measuring the absorbances at 560 nm with a densitometer (CS-930, Shimazu), and the proportion of each protein to the total water-soluble protein (exactly, the integral sum of the absorbance areas) was calculated. In addition, the relative percentage to the value of the untreated control group was also calculated.
(§2) Two series of experiments were carried out. […] One hour after the reperfusion, the animal was killed by decapitation and the brain was removed. […] One hour after the final administration (day 5), the animal was decapitated and the brain was isolated. The isolated brain was subjected to fractionation and electrophoresis as described above.

Another experiment relates to calspectin. The conditions noted are these: number of brain sites with significant effect. The procedure: as §1, §2
Another experiment relates to MAP-2. The procedure: as §1, §2
The mark [1] stands for this setting: Left: dosed 1 hour before ischemia, killed 1 hour after ischemia.
The mark [2] stands for this setting: Right: dosed 1 hour before ischemia and for 4 subsequent days.
Setting [3] is: Left: dosed 1 hour before ischemia, killed 1 hour after ischemia, number of brain sites with significant effect.
[4] abbreviates: Right: dosed 1 hour before ischemia and for 4 subsequent days, number of brain sites with significant effect.
Where [5] appears, read: sum of left and right (in brackets).

With `COC(=O)C1=C(C)NC(C)=C(C(=O)OCCN(C)Cc2ccccc2)C1c1cccc([N+](=O)[O-])c1` (centres unmarked) [Nicardipine, nicardipine], the “Total score, Clathrin” value in the experiment with clathrin (setting [1]) and in the experiment on clathrin (setting [2]) was 0/0 (0) in each case. Also, the “Total score, Calspectin” value in the experiment with calspectin (setting [1]) and with calspectin (setting [2]) was 0/0 (0) in each case. For the same compound, the “Total score, MAP-2” value stood at 2 in the experiment with MAP-2 (setting [3]), 2 in the experiment with MAP-2 (setting [4]) and 4 in the experiment on MAP-2 (setting [5]).
For `COCCOC(=O)C1=C(C)NC(C)=C(C(=O)OC(C)C)C1c1cccc([N+](=O)[O-])c1` (centres unmarked) [Nimodipine, nimodipine], the Clathrin protein concentration is on record as 81.9± 5.5 % of normal value in the experiment with clathrin (Cortex, 0.01 mg/kg s.c. 1 hour before ischemia, 1 hour after ischemia); 52.3± 9.5 % of normal value in the experiment on clathrin (Cortex, 0.1 mg/kg s.c. 1 hour before ischemia and once a day for 4 days, 4 days after ischemia); 81.8± 6.3 % of normal value in the experiment with clathrin (Cortex, 0.1 mg/kg s.c. 1 hour before ischemia, 1 hour after ischemia); 55.8± 8.5 % of normal value in the experiment with clathrin (Cortex, 1 mg/kg s.c. 1 hour before ischemia and once a day for 4 days, 4 days after ischemia); 85.9± 4.0 % of normal value in the experiment with clathrin (Cortex, 1 mg/kg s.c. 1 hour before ischemia, 1 hour after ischemia); 54.6± 5.7 % of normal value in the experiment with clathrin (Cortex, 10 mg/kg s.c. 1 hour before ischemia and once a day for 4 days, 4 days after ischemia). Further, the Clathrin protein concentration in the experiment on clathrin (Hippocampus, 0.01 mg/kg s.c. 1 hour before ischemia, 1 hour after ischemia) is listed as 52.1± 3.3 % of normal value; in the experiment on clathrin (Hippocampus, 0.1 mg/kg s.c. 1 hour before ischemia and once a day for 4 days, 4 days after ischemia), 46.6± 4.2 % of normal value; in the experiment with clathrin (Hippocampus, 0.1 mg/kg s.c. 1 hour before ischemia, 1 hour after ischemia) it was 56.7± 7.1 % of normal value; in the experiment on clathrin (Hippocampus, 1 mg/kg s.c. 1 hour before ischemia and once a day for 4 days, 4 days after ischemia), 51.2±10.7 % of normal value; in the experiment with clathrin (Hippocampus, 1 mg/kg s.c. 1 hour before ischemia, 1 hour after ischemia), 61.6±12.2 % of normal value; in the experiment with clathrin (Hippocampus, 10 mg/kg s.c. 1 hour before ischemia and once a day for 4 days, 4 days after ischemia) it was 64.6±15.0 % of normal value. The Clathrin protein concentration with clathrin (Striatum, 0.01 mg/kg s.c. 1 hour before ischemia, 1 hour after ischemia) is on record as 70.5±21.1 % of normal value; in the experiment with clathrin (Striatum, 0.1 mg/kg s.c. 1 hour before ischemia and once a day for 4 days, 4 days after ischemia) it was 53.6±11.3 % of normal value; in the experiment with clathrin (Striatum, 0.1 mg/kg s.c. 1 hour before ischemia, 1 hour after ischemia), 68.7±11.9 % of normal value; in the experiment on clathrin (Striatum, 1 mg/kg s.c. 1 hour before ischemia and once a day for 4 days, 4 days after ischemia) it was 57.9± 5.3 % of normal value; in the experiment with clathrin (Striatum, 1 mg/kg s.c. 1 hour before ischemia, 1 hour after ischemia) it was 69.8±12.7 % of normal value; in the experiment on clathrin (Striatum, 10 mg/kg s.c. 1 hour before ischemia and once a day for 4 days, 4 days after ischemia), 62.0±10.2 % of normal value. Besides, the “Total score, Clathrin” value in the experiment on clathrin (setting [1]) and with clathrin (setting [2]) was 0/0 (0) in each case. The “Total score, Calspectin” value in the experiment on calspectin (setting [1]) and with calspectin (setting [2]) was 0/0 (0) each time. For the same compound, the “Total score, MAP-2” value in the experiment with MAP-2 (setting [3]) was 2; in the experiment with MAP-2 (setting [4]), 1; with MAP-2 (setting [5]) it was 3.
